These results are taken from patent US9981909B2 (Janssen Pharmaceutica NV, priority 2008, dated 2018).

Structures are written as SMILES. Counter-ions that a name gives are not always drawn.

In one assay the target is rat 5-HT7 receptor (Rattus norvegicus (Rat), UniProt P32305). Briefly: r5-HT7 binding assay, competitive radioligand binding with [3H]5-CT. The method in brief: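 Whole r5-HT7-transfected HEK-293 cells first received test compound for 10 min. They were then exposed to 100 nM 5-CT for 20 min before lysis and competitive immunoassay of cAMP. Affinity came from displacement of [3H]5-CT on membranes of the same recombinant line, expressed as Ki.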

The target in another assay is r5-HT7 receptor (Rattus norvegicus (Rat), UniProt P32305). Briefly: HitHunter cAMP assay, antagonist testing against 100 nM 5-CT. The format is cell-based. The settings on record: antagonist testing, 100 nM 5-CT challenge, HEK-293 r5-HT7; read-out: R5HT7 cAMP pKb (converted). As for the experimental part: (§1) Receptor binding was performed using membrane fractions prepared from the HEK-293 cell line recombinantly expressing rat 5-HT7 receptors (NCBI accession NM_022938). Compound affinity for the rat 5-HT7 receptor subtype was evaluated by competitive radioligand binding assays using 5-carboxamido[^3H]tryptamine ([^3H]5-CT) (Amersham Biosciences, cat. 90000403) detection. HitHunter™ cAMP assays are in-vitro based competitive immunoassays. The assay was performed on the HEK-293 cell line stably transfected with r5-HT7 receptor. Cells were pre-incubated with test compounds for 10 minutes. For antagonist testing, the cells were then challenged with 100 nM 5-CT for 20 minutes. Cells were then lysed and cAMP measured according to manufacturers protocol (Amersham, cat. NET791250UC) or [^3H]mesulergine (Amersham, cat. TRK1041). The assay was performed on membranes prepared from HEK-293 cells stably transfected with h5-HT6. Following centrifugation, membranes were resuspended and incubated for 60 min at room temperature with 1.7 nM [^3H]LSD in the presence of increasing concentration of test compounds. Nonspecific binding was defined in the presence of 10 μM clozapine (Tocris, cat. TRK1068). Homogenized HEK-293 membranes expressing the human SERT were incubated in 50 mM Tris-HCl (pH 7.5), 120 mM NaCl, 5 mM KCl with [^3H]-citalopram (3 nM) with or without test compounds. Nonspecific binding was determined in the presence of 10 μM fluoxetine. Radioactivity readouts and Ki values were performed as previously described for r5-HT7. […] Compounds were assayed in their free form or as salts, as indicated in the Examples section above.

Another assay deals with human SERT (Homo sapiens (Human), UniProt P31645). Briefly: human SERT binding assay with [3H]-citalopram on HEK-293 membranes. The settings on record: read-out: hSERT binding Ki. As for the experimental part: as §1
The mark [1] stands for this setting: rat 5-HT7 receptor, HEK-293 membranes.

Chain of human SERT (P31645 whole entry): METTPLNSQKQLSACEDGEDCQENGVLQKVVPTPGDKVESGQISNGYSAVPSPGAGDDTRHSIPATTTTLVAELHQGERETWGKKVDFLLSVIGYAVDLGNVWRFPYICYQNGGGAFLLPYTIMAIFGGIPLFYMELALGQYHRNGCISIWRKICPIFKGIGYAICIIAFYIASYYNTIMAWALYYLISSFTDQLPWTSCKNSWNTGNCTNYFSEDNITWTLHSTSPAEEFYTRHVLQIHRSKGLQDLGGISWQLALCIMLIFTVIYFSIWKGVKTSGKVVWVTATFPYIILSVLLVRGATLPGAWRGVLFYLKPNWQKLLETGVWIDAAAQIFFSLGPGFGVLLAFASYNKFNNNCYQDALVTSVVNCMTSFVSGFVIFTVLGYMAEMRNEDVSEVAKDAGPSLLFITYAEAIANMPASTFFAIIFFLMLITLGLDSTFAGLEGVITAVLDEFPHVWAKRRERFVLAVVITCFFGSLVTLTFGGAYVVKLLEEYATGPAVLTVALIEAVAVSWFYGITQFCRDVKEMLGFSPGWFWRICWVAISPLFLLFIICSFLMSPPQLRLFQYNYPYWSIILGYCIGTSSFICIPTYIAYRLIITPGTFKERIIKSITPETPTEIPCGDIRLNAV
Chain of rat 5-HT7 receptor (P32305 1-435): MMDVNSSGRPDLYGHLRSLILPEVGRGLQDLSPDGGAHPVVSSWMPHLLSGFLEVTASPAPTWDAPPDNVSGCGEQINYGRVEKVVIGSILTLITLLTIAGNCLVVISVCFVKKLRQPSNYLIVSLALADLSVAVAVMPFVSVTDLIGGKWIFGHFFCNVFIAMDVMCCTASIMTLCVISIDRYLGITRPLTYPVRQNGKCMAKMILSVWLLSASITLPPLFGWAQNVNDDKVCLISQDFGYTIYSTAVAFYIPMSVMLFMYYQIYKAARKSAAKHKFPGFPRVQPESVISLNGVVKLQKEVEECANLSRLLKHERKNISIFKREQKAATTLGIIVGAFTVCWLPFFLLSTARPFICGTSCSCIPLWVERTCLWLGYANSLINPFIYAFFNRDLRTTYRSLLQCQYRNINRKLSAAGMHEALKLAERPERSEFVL
Chain of r5-HT7 receptor (P32305 1-435): as above

As usually defined, the Ki is the equilibrium dissociation constant of an inhibitor or competing ligand from its target. For `Brc1ccc(OC2CCc3ccccc32)c(OC2CNC2)c1` (racemic) [Example 151, (±)-3-[5-Bromo-2-(indan-1-yloxy)-phenoxy]-azetidine], the Ki at rat 5-HT7 receptor (setting [1]) was 40 nM. In addition, the Kb on r5-HT7 receptor is 31.6 nM.
In the case of `O=C(c1cccc(Cl)c1)c1ccc(Br)cc1OC1CNC1` [Example 282, [2-(Azetidin-3-yloxy)-4-bromo-phenyl]-(3-chloro-phenyl)-methanone], on rat 5-HT7 receptor (rat 5-HT7, HEK-293 membranes), the affinity, expressed as Ki, was 39 nM. The Kb on r5-HT7 receptor was 200 nM.
With `Fc1cccc(COc2ccc(Br)cc2OC2CCNCC2)c1` [Example 68, 4-[5-Bromo-2-(3-fluoro-benzyloxy)-phenoxy]-piperidine], at rat 5-HT7 receptor (setting [1]), the Ki is 17 nM. In addition, at r5-HT7 receptor, the Kb is 631 nM.
With `Clc1ccc(Oc2ccc(Cl)cc2OC2CNC2)cc1` [Example 258, 3-[5-Chloro-2-(4-chloro-phenoxy)-phenoxy]-azetidine trifluoroacetate], on rat 5-HT7 receptor (rat 5-HT7, HEK-293 membranes), affinity was put at a Ki of 23 nM. Also, on r5-HT7 receptor, the Kb is 501 nM.
Taken in the same sequence, the figures for `Clc1ccc(Oc2ccc(Br)cc2OC2CNC2)cc1` [Example 251, 3-[5-Bromo-2-(4-chloro-phenoxy)-phenoxy]-azetidine] were 11 nM and 158 nM.
At rat 5-HT7 receptor (setting [1]), `CN1CCC(Oc2cc(Br)ccc2OCc2cccc(Cl)c2)CC1` [Example 66, 4-[5-Bromo-2-(3-chloro-benzyloxy)-phenoxy]-1-methyl-piperidine] yielded a Ki of 10 nM. In addition, the Kb on r5-HT7 receptor is 50.1 nM.
As for `Clc1cccc(Oc2ccc(Cl)cc2OC2CNC2)c1` [Example 257, 3-[5-Chloro-2-(3-chloro-phenoxy)-phenoxy]-azetidine maleate], at rat 5-HT7 receptor (rat 5-HT7, HEK-293 membranes), the affinity, expressed as Ki, was 21 nM. Also, the Kb on r5-HT7 receptor was 501 nM.
Regarding `CCCN1CC(Oc2cc(Br)ccc2OCc2cccc(Cl)c2)C1` [Example 4, 3-[5-Bromo-2-(3-chloro-benzyloxy)-phenoxy]-1-propyl-azetidine], the Ki at rat 5-HT7 receptor (setting [1]) came to 8 nM. At r5-HT7 receptor, the Kb is 0.631 nM.
With `CCN1CC(Oc2cc(F)ccc2OCc2cccc(Cl)c2)C1` [Example 207, 3-[2-(3-Chloro-benzyloxy)-5-fluoro-phenoxy]-1-ethyl-azetidine], the affinity at rat 5-HT7 receptor (setting [1]), expressed as Ki, was 20 nM. In addition, the Kb at r5-HT7 receptor is 15.8 nM.
Consider `FC(F)(F)Oc1cccc(Oc2ccc(Br)cc2OC2CNC2)c1` [Example 253, 3-[5-Bromo-2-(3-trifluoromethoxy-phenoxy)-phenoxy]-azetidine], for which the Ki at rat 5-HT7 receptor (rat 5-HT7, HEK-293 membranes) amounted to 18 nM. In addition, the Kb at r5-HT7 receptor was 501 nM.
`Fc1ccccc1COc1ccc(Br)cc1OC1CCNCC1` [Example 67, 4-[5-Bromo-2-(2-fluoro-benzyloxy)-phenoxy]-piperidine] displayed a Ki on rat 5-HT7 receptor (setting [1]) of 13 nM. In addition, at r5-HT7 receptor, the Kb is 398 nM.
On to `Clc1ccc(OCc2cc3ccccc3o2)c(OC2CNC2)c1` [Example 89, 3-[2-(Benzofuran-2-ylmethoxy)-5-chloro-phenoxy]-azetidine], for which the Ki on human SERT is 242 nM; on rat 5-HT7 receptor (setting [1]) it was 25 nM.
As for `CON=C(COc1ccc(Cl)cc1OC1CNC1)c1ccccc1` [Example 182, 2-[2-(Azetidin-3-yloxy)-4-chloro-phenoxy]-1-phenyl-ethanone O-methyl-oxime], the inhibition constant Ki on human SERT came to 514 nM; on rat 5-HT7 receptor (setting [1]), 76 nM.
In the case of `Clc1cccc(COc2cc(Br)ccc2OC2CNC2)c1` [Example 22, 3-[4-Bromo-2-(3-chloro-benzyloxy)-phenoxy]-azetidine], the inhibition constant (Ki) on human SERT amounted to 28 nM; on rat 5-HT7 receptor (setting [1]), 125 nM.
On to `CC(C)(C)N1CC(Oc2cc(Cl)ccc2OCc2cccc(C(F)(F)F)c2)C1` [Example 230, 1-tert-Butyl-3-[5-chloro-2-(3-trifluoromethyl-benzyloxy)-phenoxy]-azetidine], for which the Ki on human SERT came to 1200 nM; at rat 5-HT7 receptor (rat 5-HT7, HEK-293 membranes), 6 nM.
On to `CC(Oc1ccc(Cl)cc1OC1CNC1)c1ccccc1F` (racemic) [Example 121, (±)-3-[5-Chloro-2-[1-(2-fluoro-phenyl)-ethoxy]-phenoxy]-azetidine], for which the inhibition constant (Ki) at human SERT turned out to be 164 nM; on rat 5-HT7 receptor (setting [1]), 33 nM.
Taken in the same sequence, the figures for `CC(Oc1ccc(Cl)cc1OC1CNC1)c1ccc(F)cc1` (racemic) [Example 124, (±)-3-[5-Chloro-2-[1-(4-fluoro-phenyl)-ethoxy]-phenoxy]-azetidine] were 20 nM and 43 nM.
As to `Clc1cccc(COc2ccc(Br)cc2OCC2CNC2)c1` [Example 233, 3-[5-Bromo-2-(3-chloro-benzyloxy)-phenoxymethyl]-azetidine], the Ki was 23 nM at human SERT and 27 nM at rat 5-HT7 receptor (rat 5-HT7, HEK-293 membranes).
On to `FC(F)(F)c1ccc(COc2ccc(Br)cc2OC2CCNCC2)o1` [Example 64, 4-[5-Bromo-2-(5-trifluoromethyl-furan-2-ylmethoxy)-phenoxy]-piperidine], for which the Ki at human SERT came out at 43 nM; on rat 5-HT7 receptor (setting [1]) it was 17 nM.
On to `CC1(Oc2cc(Br)ccc2OCc2ccc(C(F)(F)F)o2)CNC1` [Example 216], for which the Ki at human SERT came to 36 nM; on rat 5-HT7 receptor (rat 5-HT7, HEK-293 membranes) it was 16 nM.
As to `Clc1cnc(OCc2ccccc2)c(OC2CNC2)c1` [Example 196, 3-(Azetidin-3-yloxy)-2-benzyloxy-5-chloro-pyridine], the Ki at human SERT was found to be 53 nM; on rat 5-HT7 receptor (setting [1]), 359 nM.
Consider `CC(Oc1ccc(Cl)cc1OC1CNC1)c1cccc(F)c1` (racemic) [Example 115, (±)-3-[5-Chloro-2-[1-(3-fluoro-phenyl)-ethoxy]-phenoxy]-azetidine], for which the Ki was found to be 202 nM at human SERT and 33 nM at rat 5-HT7 receptor (setting [1]).
In the same order, the values of `Cc1ccc2c(c1)CCC2Oc1ccc(Br)cc1OC1CNC1` (racemic) [Example 155, (±)-3-[5-Bromo-2-(5-methyl-indan-1-yloxy)-phenoxy]-azetidine] are 45 nM and 19 nM.
Take `FCC(Oc1ccc(Br)cc1OC1CNC1)c1ccccc1` (stereo not shown) [Example 142, 3-[5-Bromo-2-(2-fluoro-1-phenyl-ethoxy)-phenoxy]-azetidine]: the Ki on human SERT came to 613 nM; at rat 5-HT7 receptor (setting [1]) it was 91 nM.
Regarding `FC(F)(F)c1ccc(COc2ccc(Br)cc2CC2CNC2)o1` [Example 232, 3-[5-Bromo-2-(5-trifluoromethyl-furan-2-ylmethoxy)-benzyl]-azetidine], the Ki at human SERT was found to be 1 nM; on rat 5-HT7 receptor (rat 5-HT7, HEK-293 membranes), 3 nM.
As to `Fc1ccc(OCc2ccc(C(F)(F)F)o2)c(OC2CNC2)c1` [Example 208, 3-[5-Fluoro-2-(5-trifluoromethyl-furan-2-ylmethoxy)-phenoxy]-azetidine], the Ki stood at 303 nM at human SERT and 365 nM at rat 5-HT7 receptor (setting [1]).
In the case of `CC(Oc1ccc(Cl)cc1OC1CCNCC1)c1cccc(Cl)c1` (racemic) [Example 136, (±)-4-[5-Chloro-2-[1-(3-chloro-phenyl)-ethoxy]-phenoxy]-piperidine], the Ki on human SERT was 98 nM; at rat 5-HT7 receptor (setting [1]), 29 nM.
`C[C@H]1[C@H](Oc2cc(Br)ccc2OCc2cccc(F)c2)CN1Cc1ccccc1` (relative stereo) [Example 221, trans-1-Benzyl-3-[5-bromo-2-(3-fluoro-benzyloxy)-phenoxy]-2-methyl-azetidine]: the Ki is 5000 nM at human SERT and 147 nM at rat 5-HT7 receptor (rat 5-HT7, HEK-293 membranes).
As for `Fc1ccc2c(c1)CC(Oc1ccc(Cl)cc1OC1CNC1)C2` (stereo not shown) [Example 175, 3-[5-Chloro-2-(5-fluoro-indan-2-yloxy)-phenoxy]-azetidine], the Ki on human SERT is 4 nM; on rat 5-HT7 receptor (setting [1]), 11 nM.
As for `Clc1ccc(Oc2nc3ccccc3o2)c(OC2CNC2)c1` [Example 262, 2-[2-(Azetidin-3-yloxy)-4-chloro-phenoxy]-benzooxazole], the Ki is 112 nM at human SERT and 31 nM on rat 5-HT7 receptor (rat 5-HT7, HEK-293 membranes).
`FC(F)(F)c1ccc(COc2ccc(Cl)cc2OC2CNC2)c(C(F)(F)F)c1` [Example 45, 3-[2-(2,4-Bis-trifluoromethyl-benzyloxy)-5-chloro-phenoxy]-azetidine]: the Ki on human SERT worked out at 197 nM; at rat 5-HT7 receptor (setting [1]), 3160 nM.
In the same order, the values of `Clc1ccc(OCCOc2ccccc2)c(OC2CNC2)c1` [Example 171, 3-[5-Chloro-2-(2-phenoxy-ethoxy)-phenoxy]-azetidine] are 234 nM and 7 nM.
In the same order, the values of `Clc1ccc(OCc2ccc3occc3c2)c(OC2CNC2)c1` [Example 83, 3-[2-(Benzofuran-5-ylmethoxy)-5-chloro-phenoxy]-azetidine] are 24 nM and 16 nM.
In the same order, the values of `Clc1ccc(OCc2ccncc2)c(OC2CNC2)c1` [Example 53, 4-[2-(Azetidin-3-yloxy)-4-chloro-phenoxymethyl]-pyridine] are 464 nM and 260 nM.
`FC(F)(F)c1ccccc1COc1ccc(Cl)cc1OC1CNC1` [Example 32, 3-[5-Chloro-2-(2-trifluoromethyl-benzyloxy)-phenoxy]-azetidine]: the values for the Ki at human SERT and at rat 5-HT7 receptor (setting [1]) were 29 nM and 53 nM, respectively.
